This note sets out measurements from the supplement of paper PMC7695840.

Each structure is given as a SMILES string. Several values for one entry are separate records, joined by “and”; a condition that tells them apart may be missing. Equal values may be shown once. Where a name gives a salt, the structure may show the parent alone.

The IC50 is the midpoint of a concentration-inhibition curve.

For assay [1], the system named is Staphylococcus aureus MW2 (mecA+). Description: IC50 (growth, competition assay). The settings on record: cefoxitin: subinhibitory. In outline:
(§1)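 Per plate, DsRed (540/590) and GFP (485/520) readings were normalized between the medians of the single-strain controls, after which No Treatment was fixed at 0.5. These readings came from a 1:1 mix of pre-induced fluorescent S. aureus MW2 strains with and without the resistance gene, grown for 20 h at 37 °C and 90% humidity, unshaken, in LB with a daily-set subinhibitory drug dose in 1536-well plates. Per-strain IC50 meant the dose halving the No Treatment signal, or the maximal signal.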

Assay [2] concerns Staphylococcus aureus MW2 delta-mecA (mecA-). The assay is described as follows: IC50 (growth, competition assay). Particulars: cefoxitin: subinhibitory. In short, it runs like this:
as §1

In the case of `CCOC(=O)CCC(=O)O[C@H]1[C@H](O[C@@H]2[C@@H](C)[C@H](O[C@H]3C[C@@](C)(OC)[C@@H](O)[C@H](C)O3)[C@@H](C)C(=O)O[C@H](CC)[C@@](C)(O)[C@H](O)[C@@H](C)C(=O)[C@H](C)C[C@@]2(C)O)O[C@H](C)C[C@@H]1N(C)C` [ERYPED], the IC50 in assay [1] (fluorescent label: DsRed), in assay [1] (fluorescent label: GFP), in assay [2] (fluorescent label: DsRed) and in assay [2] (fluorescent label: GFP) was < 9.85 µM each time.

Turning to `CC(C)c1c(C(=O)Nc2ccccc2)c(-c2ccccc2)c(-c2ccc(F)cc2)n1CC[C@@H](O)C[C@@H](O)CC(=O)O` [Atorvastatin calcium (Lipitor)], the IC50 in assay [1] (fluorescent label: DsRed) was 91 µM and 75.8 µM; in assay [1] (fluorescent label: GFP), 73.2 µM and 62.8 µM; in assay [2] (fluorescent label: DsRed), 29 µM and 24.3 µM; in assay [2] (fluorescent label: GFP), 30.1 µM and 25.4 µM.

Take `COC(=O)C1=C(C)NC(C)=C(C(=O)OC)C1c1cccc(NC(=O)NCCCN2CCC(c3cccc(OC)c3)CC2)c1`: the half-maximal inhibitory concentration (IC50) came to 45.5 µM in assay [1] (fluorescent label: DsRed), 54.8 µM in assay [1] (fluorescent label: GFP), 18.2 µM in assay [2] (fluorescent label: DsRed) and 13.4 µM in assay [2] (fluorescent label: GFP).

On to `CCOc1nc2cccc(C(=O)OC(C)OC(=O)OC3CCCCC3)c2n1Cc1ccc(-c2ccccc2-c2nn[nH]n2)cc1` (stereo not drawn) [ATACAND], for which the concentration for half-maximal inhibition (IC50) was 9.89 µM in assay [1] (fluorescent label: DsRed), 14.8 µM in assay [1] (fluorescent label: GFP), < 9.85 µM in assay [2] (fluorescent label: DsRed) and < 9.85 µM in assay [2] (fluorescent label: GFP).

For the compound `CN(C)c1ccc(C(=C2C=CC(=[N+](C)C)C=C2)c2ccc(N(C)C)cc2)cc1` [Crystal violet], the IC50 was 0.691 µM in assay [1] (fluorescent label: DsRed), 0.758 µM in assay [1] (fluorescent label: GFP), < 0.498 µM in assay [2] (fluorescent label: DsRed) and < 0.498 µM in assay [2] (fluorescent label: GFP).

Regarding `Cc1cncc(CN2CCC(=C3c4ccc(Cl)cc4CCc4cccnc43)CC2)c1` [Rupatadine Fumarate], the concentration for half-maximal inhibition (IC50) was determined as 74.3 µM in assay [1] (fluorescent label: DsRed), 112 µM in assay [1] (fluorescent label: GFP), 26.6 µM in assay [2] (fluorescent label: DsRed) and 20.2 µM in assay [2] (fluorescent label: GFP).

Consider `CC(=O)Oc1c2c(c(CC=C(C)C)c3c1C(=O)C1=C[C@@H]4CC5C(C)(C)OC(C/C=C(\C)C(=O)O)(C4=O)[C@@]15O3)OC(C)(CCC=C(C)C)C=C2` (stereo partly drawn) [ACETYL ISOGAMBOGIC ACID], for which the IC50 was 13.5 µM in assay [1] (fluorescent label: DsRed), 17.2 µM in assay [1] (fluorescent label: GFP), < 9.85 µM in assay [2] (fluorescent label: DsRed) and < 9.85 µM in assay [2] (fluorescent label: GFP).

In the case of `O=C1OC(CN2CCOCC2)CN1/N=C/c1ccc([N+](=O)[O-])o1` (stereo not drawn) [FURALTADONE], the IC50 in assay [1] (fluorescent label: DsRed) was determined as 17.8 µM; in assay [1] (fluorescent label: GFP) it was 15.1 µM; in assay [2] (fluorescent label: DsRed), 11.4 µM; in assay [2] (fluorescent label: GFP), 18.5 µM.

With `CC/C(=C(\c1ccccc1)c1ccc(OCCN(C)C)cc1)c1ccccc1` [Tamoxifen], the IC50 in assay [1] (fluorescent label: DsRed) is 14.8 µM; in assay [1] (fluorescent label: GFP), 14.9 µM; in assay [2] (fluorescent label: DsRed) it was 12.2 µM; in assay [2] (fluorescent label: GFP) it was < 9.85 µM.

Regarding `OCCN1CCN(CCCN2c3ccccc3Sc3ccc(Cl)cc32)CC1` [TRILAFON], the IC50 in assay [1] (fluorescent label: DsRed) was determined as 57 µM; in assay [1] (fluorescent label: GFP) it was 52.6 µM; in assay [2] (fluorescent label: DsRed), 18.4 µM; in assay [2] (fluorescent label: GFP) it was 15.8 µM.

On to `Cc1cc(Nc2ncc(Cl)c(Nc3ccccc3S(=O)(=O)C(C)C)n2)c(OC(C)C)cc1C1CCNCC1` [Ceritinib (LDK378)], for which the half-inhibitory concentration (IC50) in assay [1] (fluorescent label: DsRed) was 29 µM; in assay [1] (fluorescent label: GFP), 27.7 µM; in assay [2] (fluorescent label: DsRed), < 9.85 µM; in assay [2] (fluorescent label: GFP), < 9.85 µM.

As to `CN(C)C(=S)SSC(=S)N(C)C` [REZIFILM], the IC50 is 33.4 µM in assay [1] (fluorescent label: DsRed), 63.6 µM in assay [1] (fluorescent label: GFP), 18.2 µM in assay [2] (fluorescent label: DsRed) and 23.6 µM in assay [2] (fluorescent label: GFP).

With `O=C(O)Cc1cc(I)c(Oc2cc(I)c(O)c(I)c2)c(I)c1` [TETRAC], the IC50 in assay [1] (fluorescent label: DsRed), in assay [1] (fluorescent label: GFP), in assay [2] (fluorescent label: DsRed) and in assay [2] (fluorescent label: GFP) was < 9.85 µM in each case.

Turning to `O=C1NC(=O)[C@@H](c2cn3c4c(cccc24)CCC3)[C@@H]1c1c[nH]c2ccccc12` [ARQ 197 (Tivantinib)], the IC50 in assay [1] (fluorescent label: DsRed) was 107 µM; in assay [1] (fluorescent label: GFP), 112 µM; in assay [2] (fluorescent label: DsRed), 32.2 µM; in assay [2] (fluorescent label: GFP) it was 57.3 µM.

For the compound `COc1ccc(COc2ccc(Cc3cnc(N)nc3N)cc2OC)cc1` [GW2580], the half-maximal inhibitory concentration (IC50) in assay [1] (fluorescent label: DsRed) was 15.1 µM; in assay [1] (fluorescent label: GFP) it was 16.2 µM; in assay [2] (fluorescent label: DsRed), < 9.85 µM; in assay [2] (fluorescent label: GFP) it was < 9.85 µM.

In the case of `COc1ccc(Cl)cc1NC(=O)Nc1cc(C)nc2ccccc12` [PQ 401], the IC50 in assay [1] (fluorescent label: DsRed) is 24.3 µM; in assay [1] (fluorescent label: GFP), 17.9 µM; in assay [2] (fluorescent label: DsRed) it was 10.6 µM; in assay [2] (fluorescent label: GFP) it was 12.3 µM.

`O=c1[nH]cc(F)c(=O)[nH]1` [5-Fluorouracil]: the IC50 in assay [1] (fluorescent label: DsRed), in assay [1] (fluorescent label: GFP), in assay [2] (fluorescent label: DsRed) and in assay [2] (fluorescent label: GFP) was < 9.85 µM each time.

For the compound `CC[C@H](C)C(=O)O[C@H]1C[C@H](O)C=C2C=C[C@H](C)[C@H](CC[C@@H](O)C[C@@H](O)CC(=O)O)[C@H]21` [Pravastatin sodium], the IC50 is 28.8 µM in assay [1] (fluorescent label: DsRed), 27.8 µM in assay [1] (fluorescent label: GFP), < 9.85 µM in assay [2] (fluorescent label: DsRed) and < 9.85 µM in assay [2] (fluorescent label: GFP).

Turning to `O=C1NC(=O)[C@@]2(CCOc3ccc(F)cc32)N1` [Sorbinil], the half-inhibitory concentration (IC50) in assay [1] (fluorescent label: DsRed), in assay [1] (fluorescent label: GFP), in assay [2] (fluorescent label: DsRed) and in assay [2] (fluorescent label: GFP) was < 9.85 µM throughout.

`CC(=O)/C=C1/C(=O)N(C)c2ccccc21` [Supercinnamaldehyde]: the IC50 was 46.8 µM in assay [1] (fluorescent label: DsRed), 60.4 µM in assay [1] (fluorescent label: GFP), < 9.85 µM in assay [2] (fluorescent label: DsRed) and < 9.85 µM in assay [2] (fluorescent label: GFP).

With `O=C(O)c1cn(C2CC2)c2cc(N3CCNCC3)c(F)cc2c1=O` [Ciprofloxacin (Cipro)], the IC50 in assay [1] (fluorescent label: DsRed) is 3.52 µM; in assay [1] (fluorescent label: GFP) it was 3.52 µM; in assay [2] (fluorescent label: DsRed), 0.863 µM; in assay [2] (fluorescent label: GFP) it was 1.17 µM.

For the compound `CNc1ccc2oc(C[C@H]3O[C@@]4(CC[C@H]3C)O[C@H]([C@H](C)C(=O)c3ccc[nH]3)[C@H](C)C[C@H]4C)nc2c1C(=O)O` [Calcimycin], the IC50 in assay [1] (fluorescent label: DsRed), in assay [1] (fluorescent label: GFP), in assay [2] (fluorescent label: DsRed) and in assay [2] (fluorescent label: GFP) was < 9.85 µM each time.

As to `C[C@@H]1CN(c2c(F)c(F)c3c(=O)c(C(=O)O)cn(C4CC4)c3c2F)C[C@H](C)N1` [ORBAX], the IC50 in assay [1] (fluorescent label: DsRed) is < 9.85 µM; in assay [1] (fluorescent label: GFP), 15.1 µM; in assay [2] (fluorescent label: DsRed), 17.8 µM; in assay [2] (fluorescent label: GFP) it was < 9.85 µM.

As to `CCCCCCCCCCCCCCCC(=O)O[C@@H]1[C@@H](O)[C@@H](O)[C@@H]([C@H](NC(=O)[C@@H]2C[C@@H](CCC)CN2C)[C@H](C)Cl)O[C@@H]1SC` [Clindamycin palmitate HCl], the IC50 in assay [1] (fluorescent label: DsRed), in assay [1] (fluorescent label: GFP), in assay [2] (fluorescent label: DsRed) and in assay [2] (fluorescent label: GFP) was < 9.85 µM throughout.

For the compound `Cc1nnc(SCC2=C(C(=O)O)N3C(=O)[C@@H](NC(=O)Cn4cnnn4)[C@H]3SC2)s1` [Cefazolin sodium], the half-inhibitory concentration (IC50) in assay [1] (fluorescent label: DsRed), in assay [1] (fluorescent label: GFP), in assay [2] (fluorescent label: DsRed) and in assay [2] (fluorescent label: GFP) was < 9.85 µM throughout.

Take `Cc1cc(C(C)(C)CC(C)(C)C)ccc1OCCOCC[N+](C)(C)Cc1ccccc1` [DELAVAN]: the IC50 in assay [1] (fluorescent label: DsRed), in assay [1] (fluorescent label: GFP), in assay [2] (fluorescent label: DsRed) and in assay [2] (fluorescent label: GFP) was < 9.85 µM throughout.

Turning to `COc1cc(NS(C)(=O)=O)ccc1Nc1c2ccccc2nc2ccccc12` [Amsacrine hydrochloride], the IC50 in assay [1] (fluorescent label: DsRed) was 106 µM; in assay [1] (fluorescent label: GFP) it was 97.2 µM; in assay [2] (fluorescent label: DsRed), < 9.85 µM; in assay [2] (fluorescent label: GFP), < 9.85 µM.
